Assays:
X/β5 = target: T1, X/β5 (Homo sapiens, UniProt P20618+P28074); experiment: Proteasome activity assay, purified 20S proteasome, Ac-WLA-AMC; type: biochemical
T1 construct: purchased R&D Systems
Protocol: Purified 20S human proteasomes (CP and IP, R&D Systems) were used to assess the in vitro inhibition of proteasome catalytic activity by LMP2 inhibitors. In our 96-well format assays involving a 100 μL total volume, 20S proteasomes (0.5 μg/mL) were incubated with inhibitors or reference compounds (e.g., carfilzomib) in assay buffer (20 mM Tris-HCl, 0.5 mM EDTA, 0.035% SDS) at room temperature for 30 min. Reactions were initiated by the addition of fluorogenic substrates containing the AMC (7-amino-4-methylcoumarin) group. Specifically, the following substrates were used: Suc-LLVY-AMC (CT-L activity, 100 μM), Ac-PAL-AMC (LMP2, 100 μM), Ac-WLA-AMC (β5, 20 μM), Ac-nLPnLD-AMC (β1,100 μM), Ac-RLR-AMC (β2/2i, 20 μM), and Ac-ANW-AMC (β5i, 100 μM). The fluorescence of liberated AMC was measured over a period of 90 min at 360 and 460 nm on a SpectraMax M5 fluorescence plate reader (Molecular Devices). For the proteasome activity of brain tissues isolated from AD mice, tissues were homogenized in RIPA buffer (50 mM Tris Cl, pH 7.4, 150 mM NaCl, 5 mM EDTA, 1% Nonidet P-40, 1% sodium deoxycholate, 0.1% SDS, 1% aprotinin, 50 mM NaF) and sonicated. Samples were centrifuged for 40 min at 14,000×g (4° C.). Protein concentration was determined using the Bradford Assay according to the manufacturer's protocol. […] Fluorescence was recorded for 90 min using a Synergy-HT (Bio Tek) plate reader.

[1] = tested on: Chymotrypsin-like activity (β5/β5i); experiment: Proteasome inhibitory activity, subunit-specific cell lysate IC50, chymotrypsin-like activity; type: biochemical
[2] = tested on: neuronal tissues from the brains of APPsw mice; experiment: Cresyl violet staining of neuronal tissues; type: in vivo; conditions: APPsw mouse model, FIG. 10
From the text: Since LMP2 inhibitors had no effects on Aβ or tau aggregation, we wondered if these compounds are simply protecting neurons from cell death caused by Aβ or LPS. To examine this, we performed Cresyl violet staining experiments on neuronal tissues isolated from the brains of APPsw mice.
Frozen brain tissues were cut into 30 μm sections by using cryostat microtome (Leica CM1850; Leica Microsystems, Korea). The pieces of brain were thoroughly washed with PBS to remove the excess fixative agent, and then transferred to gelatin coated slices and stained with 0.1% Cresyl violet (2-5 minutes) to identify cortical layers and cytoarchitectural features of isocortical region. Next, the sections were washed with distill water and dehydrated by using ascending grades of ethanol (50%, 70%, 90%, and 100%) for 2 min in each grade followed by a 1-min immersion in a 1:1 mixture of absolute alcohol and xylene. The sections were then rinsed with xylene for 5-10 min and mounted with mounting medium (CYTOSEAL™ XYL; Thermo Scientific, USA). The tissue was photographed (100×) in the same areas.

[3] = tested on: APPsw transgenic mouse (Tg2576) and LPS-induced mice (ICR strain); experiment: Morris water maze test in AD mouse models; type: in vivo; conditions: FIG. 12A-12D
Protocol: These two compounds were used to investigate the impacts of LMP2 inhibition on cognitive deficits in two animal models of human Alzheimer's disease (AD). In these AD models, AD develops by Aβ deposition (APPsw transgenic mouse) or lipopolysaccharide (LPS)-induced neuroinflammation. For the APPsw transgenic model, also known as Tg2576, 10-month old APPsw mice were treated i.p. with LMP2 inhibitors twice a week for 3 weeks. […] Once treatments were finished, Morris water maze test was performed. All mice were trained for three times a day for 5 days before the test. The escape latency and distance traveled were recorded on a daily-basis over a 5-day period. […] This supports that the efficacy of LMP2 inhibitors is mediated through LMP2 inhibition. One day after the completion of Morris water maze test, the ability of mouse to maintain memory was evaluated by probe trials. […] Sequentially, a step-through latency test was performed a day after the probe trial. […]
The learning trials were conducted over 5 days, with 4 trials per day, with three randomized starting points. […] Swimming pattern of each mouse was monitored and recorded by a camera mounted above the center of the pool, and the escape latency, escape distance and swimming speed were assessed by the SMART-LD program (Panlab, Spain). […]

- IC50 (X/β5): > 10 µM
- IC50 [1]: > 10 µM
Structure (SMILES): CC(=O)NCC(=O)N1CCC[C@H]1C(=O)N[C@@H](Cc1ccccc1)C(=O)N[C@@H](CC(C)C)C(=O)[C@@]1(C)CO1 [YU102]
- neuroprotective effects [2]: no neuroprotective effects
- cognitive deficits in the APPsw mice [3]: ameliorates cognitive deficits
